Experimental data as given in US20240316047A1, “INHIBITORS OF RNA HELICASE DHX9 AND USES THEREOF” (ACCENT THERAPEUTICS, INC., priority 2022, published 2024).
Like-named read-outs stand apart in the source and are kept apart here.

Columns and labels:
NCI-H747 cells = experiment: DHX9 cellular proliferation assay (CellTiter-Glo), NCI-H747 (CRC-MSS); format: cell-based; details: read-out: H747 (CRC-MSS) Antiproliferative
LS411N cells = experiment: DHX9 cellular proliferation assay (CellTiter-Glo), LS411N (CRC-MSI); format: cell-based; details: performed at Pharmaron, read-out: LS411N (CRC-MSI-H) Antiproliferative
[1] = tested on: circBRIP1 in HCT116 cells; experiment: DHX9 circBRIP1 cellular target engagement TaqMan multiplex assay; format: cell-based; details: read-out: DHX9 Cellular Target Engagement
[2] = target: Human recombinant DHX9 protein (Homo sapiens (Human), UniProt Q08211); experiment: DHX9 ATPase assay (ADP-Glo); format: biochemical; details: for IC50: read-out: DHX9 Biochemical Inflection Point
[3] = tested on: circBRIP1 in HCT116 cells; experiment: DHX9 circBRIP1 cellular target engagement SYBR Green assay; format: cell-based
[4] = Homo sapiens, NCI-H747, performed at Pharmaron
[5] = Homo sapiens, HCT-116, Taqman assay (*)
[6] = Homo sapiens, HCT-116, values marked +, read-out: DHX9 Cellular Target Engagement EC50
[7] = values marked +, read-out: DHX9 Cellular Target Engagement EC50
[8] = Homo sapiens, HCT-116, SyBr assay (^+), read-out: DHX9 Cellular Target Engagement

Human recombinant DHX9 protein, sequence (Q08211 whole entry): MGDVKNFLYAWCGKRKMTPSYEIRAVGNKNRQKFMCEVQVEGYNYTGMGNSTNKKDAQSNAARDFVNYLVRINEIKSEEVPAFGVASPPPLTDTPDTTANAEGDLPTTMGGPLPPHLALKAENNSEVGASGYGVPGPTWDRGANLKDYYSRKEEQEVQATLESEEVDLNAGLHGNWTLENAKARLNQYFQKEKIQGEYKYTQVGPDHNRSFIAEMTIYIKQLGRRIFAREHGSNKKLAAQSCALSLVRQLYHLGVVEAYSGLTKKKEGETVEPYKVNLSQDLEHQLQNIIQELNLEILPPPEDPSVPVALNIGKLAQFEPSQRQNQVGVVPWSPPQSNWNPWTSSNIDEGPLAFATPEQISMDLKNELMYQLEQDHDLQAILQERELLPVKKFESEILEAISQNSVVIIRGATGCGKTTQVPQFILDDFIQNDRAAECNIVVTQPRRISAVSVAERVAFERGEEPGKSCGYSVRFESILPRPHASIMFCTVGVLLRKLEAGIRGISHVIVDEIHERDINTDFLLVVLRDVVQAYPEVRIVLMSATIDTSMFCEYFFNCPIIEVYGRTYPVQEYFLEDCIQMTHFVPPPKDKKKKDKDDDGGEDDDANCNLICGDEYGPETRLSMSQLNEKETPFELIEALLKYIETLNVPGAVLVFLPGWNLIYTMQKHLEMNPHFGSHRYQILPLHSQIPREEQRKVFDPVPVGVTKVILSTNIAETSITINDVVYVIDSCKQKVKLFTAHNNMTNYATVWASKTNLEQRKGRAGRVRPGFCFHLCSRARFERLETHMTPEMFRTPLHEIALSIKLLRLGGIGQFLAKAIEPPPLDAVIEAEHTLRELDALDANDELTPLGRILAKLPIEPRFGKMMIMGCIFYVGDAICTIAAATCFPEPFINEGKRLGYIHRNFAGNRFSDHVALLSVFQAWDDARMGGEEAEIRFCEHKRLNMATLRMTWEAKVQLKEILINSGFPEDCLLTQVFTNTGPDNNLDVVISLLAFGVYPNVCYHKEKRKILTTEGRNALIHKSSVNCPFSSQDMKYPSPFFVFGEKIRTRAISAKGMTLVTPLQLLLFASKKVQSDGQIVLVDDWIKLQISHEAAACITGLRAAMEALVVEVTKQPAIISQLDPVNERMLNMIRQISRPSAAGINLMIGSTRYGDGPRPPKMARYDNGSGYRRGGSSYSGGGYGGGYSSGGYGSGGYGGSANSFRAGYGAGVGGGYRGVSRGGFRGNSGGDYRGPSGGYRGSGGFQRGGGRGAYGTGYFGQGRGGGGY

Compound: Cc1sc(C(=O)Nc2cc(Cl)cc(NS(C)(=O)=O)c2)cc1-c1ncc(OC(C)C)cc1F [Example 455]
- IC50 (NCI-H747 cells; [4]): 6780 nM
- IC50 (LS411N cells; Homo sapiens, LS-411N): 88.6 nM
- EC50 [1, 5]: 57.6 nM
- DHX9 Biochemical Max Inhibition [2]: 67.3
- IC50 [2]: 34.2 nM

Compound: Cc1sc(C(=O)Nc2cc(Cl)cc(NS(C)(=O)=O)c2)cc1-c1ncccc1OC(C)c1cncc(F)c1 (single isomer, unassigned) [Example 631]
- IC50 (NCI-H747 cells; [4]): 4880 nM
- IC50 (LS411N cells; Homo sapiens, LS-411N): 156 nM
- EC50 [1, 5]: 59.3 nM
- DHX9 Biochemical Max Inhibition [2]: 64.4
- IC50 [2]: 31.2 nM

Compound: CCS(=O)(=O)Nc1cc(Cl)cc(NC(=O)c2cc(-c3ncc(N4CC(F)(F)C4)cc3F)n(C)c2)c1 [Example 517]
- IC50 (NCI-H747 cells; [4]): 2220 nM
- IC50 (LS411N cells; Homo sapiens, LS-411N): 135 nM
- EC50 [1, 5]: 16.8 nM
- DHX9 Biochemical Max Inhibition [2]: 54.1
- IC50 [2]: 23.7 nM

Compound: CC(Oc1cccnc1-c1cc(C(=O)Nc2cc(Cl)cc(NS(C)(=O)=O)c2)cn1C)c1cc(F)cc(C(F)(F)F)c1 (single isomer, unassigned) [Example 628, N-(3-chloro-5-methanesulfonamidophenyl)-5-{3-[1-[3-fluoro-5-(trifluoromethyl)phenyl]ethoxy]pyridin-2-yl}-1-methyl-1H-pyrrole-3-carboxamide]
- EC50 ([1]; Taqman assay (*)): 1080 nM
- DHX9 Biochemical Max Inhibition [2]: 58.1
- IC50 [2]: 537 nM

Compound: CCc1sc(C(=O)Nc2cc(Cl)cc(NS(C)(=O)=O)c2)cc1-c1ccccn1 [Example 232]
- EC50 [3, 6]: 61 nM
- DHX9 Biochemical Max Inhibition [2]: 77.5%
- IC50 [2]: 20.2 nM

Compound: CS(=O)(=O)Nc1cc(Cl)cc(NC(=O)c2cnn(-c3ncccc3OCc3cc(F)cc(F)c3)c2)c1 [Example 187]
- EC50 [3, 7]: 50.4 nM
- DHX9 Biochemical Max Inhibition [2]: 82.4%
- IC50 [2]: 3.2 nM

Compound: Cc1cc(C(=O)Nc2cc(Cl)cc(NS(C)(=O)=O)c2)cn1-c1ccc(N(C)C2CCOC2)cn1 (stereo not shown) [Example 675]
- IC50 (NCI-H747 cells; performed at Pharmaron): > 10000 nM
- IC50 (LS411N cells): 121 nM
- EC50 ([3]; SyBr assay (^+), read-out: DHX9 Cellular Target Engagement): 23.2 nM
- DHX9 Biochemical Max Inhibition [2]: 71.2
- IC50 [2]: 4.1 nM

Compound: Cn1cc(C(=O)Nc2cc(Cl)cc(NS(C)(=O)=O)c2)cc1-c1ncc(N2CC3C(C2)C3(C)C)cc1F (stereo not shown) [Example 516]
- EC50 [1, 5]: 220 nM
- DHX9 Biochemical Max Inhibition [2]: 57.7
- IC50 [2]: 204 nM

Compound: CS(=O)(=O)Nc1cc(Cl)cc(NC(=O)c2cnn(-c3ncccc3OCc3cc(F)cc(F)c3)c2)c1 [Example 256]
- EC50 [3, 7]: 2030 nM
- DHX9 Biochemical Max Inhibition [2]: 70.1%
- IC50 [2]: 403 nM

Compound: CS(=O)(=O)Nc1cc(F)cc(NC(=O)c2cnn(-c3ccccc3OCc3ccccc3)c2)c1 [Example 430]
- EC50 [3, 8]: 1170 nM
- DHX9 Biochemical Max Inhibition [2]: 74.9
- IC50 [2]: 142 nM

Compound: CC(Oc1cccnc1-c1cc(C(=O)Nc2cc(Cl)cc(NS(C)(=O)=O)c2)cn1C)c1cc(F)cc(C(F)(F)F)c1 (single isomer, unassigned) [Example 629, N-(3-chloro-5-methanesulfonamidophenyl)-5-{3-[1-[3-fluoro-5-(trifluoromethyl)phenyl]ethoxy]pyridin-2-yl}-1-methyl-1H-pyrrole-3-carboxamide]
- EC50 ([1]; Taqman assay (*)): 112 nM
- DHX9 Biochemical Max Inhibition [2]: 74.8
- IC50 [2]: 28.9 nM

Compound: CS(=O)(=O)Nc1cc(Cl)cc(NC(=O)c2cnn(-c3c(F)cc(F)cc3OCc3cnco3)c2)c1 [Example 429]
- EC50 [3, 8]: 1180 nM
- DHX9 Biochemical Max Inhibition [2]: 59.6
- IC50 [2]: 255 nM

Compound: CS(=O)(=O)Nc1cc(Cl)cc(NC(=O)c2cnn([C@@H]3CCCC[C@@H]3O)c2)c1 (relative stereo) [Example 153, N-(3-chloro-5-(methylsulfonamido)phenyl)-1-(2-cis-hydroxycyclohexyl)-1H-pyrazole-4-carboxamide]
- EC50 [3, 7]: 6110 nM
- DHX9 Biochemical Max Inhibition [2]: 59.7%
- IC50 [2]: 256 nM

Compound: Cc1sc(C(=O)Nc2cc(Cl)cc(NS(C)(=O)=O)c2)cc1-c1ncc(N2CC(C(F)(F)F)C2)cc1F [Example 477]
- IC50 (NCI-H747 cells; performed at Pharmaron): 2520 nM
- IC50 (LS411N cells): 80.2 nM
- EC50 ([1]; Taqman assay (*)): 24.2 nM
- DHX9 Biochemical Max Inhibition [2]: 68
- IC50 [2]: 46.8 nM

Compound: CS(=O)(=O)Nc1cc(Cl)cc(NC(=O)c2cnn(-c3ncccc3OCc3cccc(Br)c3)c2)c1 [Example 231]
- EC50 [3, 6]: 203 nM
- DHX9 Biochemical Max Inhibition [2]: 66.3%
- IC50 [2]: 49.1 nM

Compound: Cc1cc(C(=O)Nc2cc(Cl)cc(NS(C)(=O)=O)c2)cn1-c1ncc(N2CCC(F)(F)C2)cc1F [Example 408]
- IC50 (NCI-H747 cells; [4]): 8160 nM
- IC50 (LS411N cells; Homo sapiens, LS-411N): 215 nM
- EC50 [1, 5]: 67.1 nM
- DHX9 Biochemical Max Inhibition [2]: 63
- IC50 [2]: 41.6 nM

Compound: Cc1sc(C(=O)Nc2cc(Cl)cc(NS(C)(=O)=O)c2)cc1-c1ncc(N2CC(C(F)(F)F)C2)cc1F [Example 460, N-(3-chloro-5-(methylsulfonamido)phenyl)-4-(3-fluoro-5-(3-(trifluoromethyl)azetidin-1-yl)pyridin-2-yl)-5-methylthiophene-2-carboxamide]
- IC50 (LS411N cells): 221 nM
- EC50 ([1]; Taqman assay (*)): 58.6 nM
- DHX9 Biochemical Max Inhibition [2]: 60.9
- IC50 [2]: 131 nM

Compound: Cc1sc(C(=O)Nc2cc(Cl)cc(NS(C)(=O)=O)c2)cc1-c1ncccc1OC(C)c1cncc(F)c1 (stereo not shown) [Example 630]
- IC50 (NCI-H747 cells; [4]): > 10000 nM
- DHX9 Biochemical Max Inhibition [2]: 67
- IC50 [2]: 22.9 nM

Compound: Cc1cc(C(=O)Nc2cc(Cl)cc(NS(C)(=O)=O)c2)cn1-c1ccc(N(C)C2CCOC2)cn1 (stereo not shown) [Example 674]
- IC50 (NCI-H747 cells; [4]): > 10000 nM
- DHX9 Biochemical Max Inhibition [2]: 66.5
- IC50 [2]: 3.9 nM

Compound: Cn1cc(C(=O)Nc2cc(Cl)cc(NS(C)(=O)=O)c2)cc1-c1ncc(F)cc1CCc1cncc(F)c1 [Example 728]
- EC50 [1, 5]: 1350 nM
- DHX9 Biochemical Max Inhibition [2]: 62.5
- IC50 [2]: 158 nM

Compound: CCOc1cnc(-c2cc(C(=O)Nc3cc(Cl)cc(NS(C)(=O)=O)c3)sc2C)c(F)c1 [Example 456]
- DHX9 Biochemical Max Inhibition [2]: 61.5
- IC50 [2]: 16.2 nM

Compound: Cn1cc(C(=O)Nc2cc(Cl)cc(NS(C)(=O)=O)c2)cc1-c1c(F)cc(F)cc1F [Example 547]
- DHX9 Biochemical Max Inhibition [2]: 81.1
- IC50 [2]: 126 nM

Compound: Cn1cc(C(=O)Nc2cc(Cl)cc(NS(C)(=O)=O)c2)cc1-c1cc(N2CC(F)(F)C2)ccn1 [Example 552]
- DHX9 Biochemical Max Inhibition [2]: 89.7
- IC50 [2]: 16.6 nM

Compound: CS(=O)(=O)Nc1cc(Cl)cc(NC(=O)c2cnn(C3CC4(CC(N)C4)C3)c2)c1 (stereo not shown) [Example 319]
- DHX9 Biochemical Max Inhibition [2]: 70.1%
- IC50 [2]: 57.7 nM

Compound: Cc1cn2cc(C(=O)Nc3cc(Cl)cc(NS(C)(=O)=O)c3)cc2c(C)n1 [Example 322]
- DHX9 Biochemical Max Inhibition [2]: 65.6%
- IC50 [2]: 215 nM

Compound: CS(=O)(=O)Nc1cc(Cl)cc(NC(=O)c2cc3ccncc3s2)c1 [Example 230]
- DHX9 Biochemical Max Inhibition [2]: 65.9%
- IC50 [2]: 93 nM
